From patent US9969694B2, “N-(arylalkyl)-N′-pyrazolyl-urea, thiourea, guanidine and cyanoguanidine compounds as TrkA kinase inhibitors” (Array BioPharma Inc., priority 2012, dated 2018)
Where a name gives a salt, the structure may show the parent alone.

Molecular target: T1, His-tagged recombinant human TrkA (Homo sapiens, UniProt P04629)
T1 construct: 6HIS tagged cytoplasmic domain from Invitrogen, Catalog No. PV3144; purchased Invitrogen PV3144
Test: TrkA Kinase Binding Assay (LanthaScreen Eu)
Conditions: averaged IC50; TR-FRET binding, 60 min, 22° C.; read-out: TrkA Enzyme IC50
Outline: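 TR-FRET tracer displacement: 5 nM His-tagged TrkA cytoplasmic domain with 4 nM Tracer 236, biotinylated anti-His and Eu-streptavidin in pH 7.5 MOPS buffer, 2% DMSO, 60 min at 22 °C. 665/615 nm emission ratio gave percent of control; IC50 from four-parameter fit.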

T1 sequence (P04629 440-796 limits assumed): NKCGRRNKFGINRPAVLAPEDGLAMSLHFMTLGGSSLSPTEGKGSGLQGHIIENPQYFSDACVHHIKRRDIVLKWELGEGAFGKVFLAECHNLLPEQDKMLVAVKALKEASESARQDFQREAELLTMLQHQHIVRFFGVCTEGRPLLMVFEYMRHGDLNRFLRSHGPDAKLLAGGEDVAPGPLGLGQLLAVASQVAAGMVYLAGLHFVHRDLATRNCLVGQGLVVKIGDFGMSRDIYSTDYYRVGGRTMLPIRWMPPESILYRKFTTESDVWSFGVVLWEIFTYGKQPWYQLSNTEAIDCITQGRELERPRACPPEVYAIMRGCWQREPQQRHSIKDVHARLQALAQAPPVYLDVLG

Structure (SMILES)	IC50 [nM]
COCc1ccc(OC(F)(F)F)c(CNC(=O)Nc2c(C)c(OC3CC4(CCN4C)C3)nn2-c2ccccc2)c1 (stereo not shown) [Example 94, 1-(5-(methoxymethyl)-2-(trifluoromethoxy)benzyl)-3-(4-methyl-3-((1-methyl-1-azaspiro[3.3]heptan-6-yl)oxy)-1-phenyl-1H-pyrazol-5-yl)urea 2,2,2-trifluoroacetate]	< 100
COCc1ccc(OC(F)(F)F)c(CNC(=O)Nc2c(C)c(O[C@@H]3CCNC[C@H]3F)nn2-c2ccccc2)c1 [Example 95, 1-(3-(((3R,4R)-3-fluoropiperidin-4-yl)oxy)-4-methyl-1-phenyl-1H-pyrazol-5-yl)-3-(5-(methoxymethyl)-2-(trifluoromethoxy)benzyl)urea]	< 100
COCc1ccc(OC(F)(F)F)c(CNC(=O)Nc2c(C)c(OC[C@H](C)N)nn2-c2ccccc2)c1 [Example 96, (S)-1-(3-(2-aminopropoxy)-4-methyl-1-phenyl-1H-pyrazol-5-yl)-3-(5-(methoxymethyl)-2-(trifluoromethoxy)benzyl)urea]	< 100
COCc1ccc(OC(F)(F)F)c(CNC(=O)Nc2c(C)c(OC[C@@H](C)N)nn2-c2ccccc2)c1 [Example 97, (R)-1-(3-(2-aminopropoxy)-4-methyl-1-phenyl-1H-pyrazol-5-yl)-3-(5-(methoxymethyl)-2-(trifluoromethoxy)benzyl)urea]	< 100
COCc1ccc(OC(F)(F)F)c(CNC(=O)Nc2c(C)c(O[C@@H]3CCNC[C@@H]3F)nn2-c2ccccc2)c1 [Example 99, 1-(3-(((3S,4R)-3-fluoropiperidin-4-yl)oxy)-4-methyl-1-phenyl-1H-pyrazol-5-yl)-3-(5-(methoxymethyl)-2-(trifluoromethoxy)benzyl)urea]	< 100
COCc1ccc(OC(F)(F)F)c(CNC(=O)Nc2c(C)c(O[C@H]3C[C@H](N)C3)nn2-c2ccccc2)c1 [Example 100, 1-(3-((1r,3r)-3-aminocyclobutoxy)-4-methyl-1-phenyl-1H-pyrazol-5-yl)-3-(5-(methoxymethyl)-2-(trifluoromethoxy)benzyl)urea]	< 100
COCc1ccc(OC(F)(F)F)c(CNC(=O)Nc2c(C)c(O[C@H]3C[C@H](N(C)C)C3)nn2-c2ccccc2)c1 [Example 104, 1-(3-((1r,3r)-3-(dimethylamino)cyclobutoxy)-4-methyl-1-phenyl-1H-pyrazol-5-yl)-3-(5-(methoxymethyl)-2-(trifluoromethoxy)benzyl)urea]	< 100
COCc1ccc(OC(F)F)c(CNC(=O)Nc2c(C)c(OCC3CCNCC3)nn2-c2ccccc2)c1 [Example 105, 1-(2-(difluoromethoxy)-5-(methoxymethyl)benzyl)-3-(4-methyl-1-phenyl-3-(piperidin-4-ylmethoxy)-1H-pyrazol-5-yl)urea]	< 100
COCc1ccc(OC(F)F)c(CNC(=O)Nc2c(C)c(OC3CC4(C3)CN(C)C4)nn2-c2ccccc2)c1 [Example 108, 1-(2-(difluoromethoxy)-5-(methoxymethyl)benzyl)-3-(4-methyl-3-((2-methyl-2-azaspiro[3.3]heptan-6-yl)oxy)-1-phenyl-1H-pyrazol-5-yl)urea]	< 100
COCc1ccc(OC(F)(F)F)c(CNC(=O)Nc2c(C)c(OC[C@H](N)CO)nn2-c2ccccc2)c1 [Example 109, (R)-1-(3-(2-amino-3-hydroxypropoxy)-4-methyl-1-phenyl-1H-pyrazol-5-yl)-3-(5-(methoxymethyl)-2-(trifluoromethoxy)benzyl)urea]	< 100

More lines, now with the values ahead:

IC50 [nM]	Structure (SMILES)
< 100	COCc1ccc(OC(F)(F)F)c(CNC(=O)Nc2c(C)c(OCC3CCN(C)CC3)nn2-c2ccccc2)c1 [Example 93, 1-(5-(methoxymethyl)-2-(trifluoromethoxy)benzyl)-3-(4-methyl-3-((1-methylpiperidin-4-yl)methoxy)-1-phenyl-1H-pyrazol-5-yl)urea]
< 100	COCc1ccc(OC(F)(F)F)c(CNC(=O)Nc2c(C)c(O[C@@H]3CCN(C)C[C@H]3F)nn2-c2ccccc2)c1 [Example 98, 1-(3-(((3R,4R)-3-fluoro-1-methylpiperidin-4-yl)oxy)-4-methyl-1-phenyl-1H-pyrazol-5-yl)-3-(5-(methoxymethyl)-2-(trifluoromethoxy)benzyl)urea]
< 100	COCc1ccc(OC(F)(F)F)c(CNC(=O)Nc2c(C)c(O[C@@H]3CCN(C)C[C@@H]3F)nn2-c2ccccc2)c1 [Example 101, 1-(3-(((3S,4R)-3-fluoro-1-methylpiperidin-4-yl)oxy)-4-methyl-1-phenyl-1H-pyrazol-5-yl)-3-(5-(methoxymethyl)-2-(trifluoromethoxy)benzyl)urea]
< 100	COCc1ccc(OC(F)(F)F)c(CNC(=O)Nc2c(C)c(OC[C@H]3COCCN3)nn2-c2ccccc2)c1 [Example 102, (R)-1-(5-(methoxymethyl)-2-(trifluoromethoxy)benzyl)-3-(4-methyl-3-(morpholin-3-ylmethoxy)-1-phenyl-1H-pyrazol-5-yl)urea]
< 100	COCc1ccc(OC(F)(F)F)c(CNC(=O)Nc2c(C)c(OC[C@@H]3COCCN3)nn2-c2ccccc2)c1 [Example 103, (S)-1-(5-(methoxymethyl)-2-(trifluoromethoxy)benzyl)-3-(4-methyl-3-(morpholin-3-ylmethoxy)-1-phenyl-1H-pyrazol-5-yl)urea]
< 100	COCc1ccc(OC(F)(F)F)c(CNC(=O)Nc2c(C)c(OCC3CCN(C)C3)nn2-c2ccccc2)c1 (stereo not shown) [Example 106, 1-(5-(methoxymethyl)-2-(trifluoromethoxy)benzyl)-3-(4-methyl-3-((1-methylpyrrolidin-3-yl)methoxy)-1-phenyl-1H-pyrazol-5-yl)urea hydrochloride]
< 100	COCc1ccc(OC(F)F)c(CNC(=O)Nc2c(C)c(OCC3CCN(C)C3)nn2-c2ccccc2)c1 (stereo not shown) [Example 107, 1-(2-(difluoromethoxy)-5-(methoxymethyl)benzyl)-3-(4-methyl-3-((1-methylpyrrolidin-3-yl)methoxy)-1-phenyl-1H-pyrazol-5-yl)urea]
< 100	COCc1ccc(OC(F)(F)F)c(CNC(=O)Nc2c(C)c(OC[C@@H]3COCCN3C)nn2-c2ccccc2)c1 [Example 110, (S)-1-(5-(methoxymethyl)-2-(trifluoromethoxy)benzyl)-3-(4-methyl-3-((4-methylmorpholin-3-yl)methoxy)-1-phenyl-1H-pyrazol-5-yl)urea]
< 100	COCc1ccc(OC(F)(F)F)c(CNC(=O)Nc2c(C)c(OCC3CCCN(C)C3)nn2-c2ccccc2)c1 (stereo not shown) [Example 111, 1-(5-(methoxymethyl)-2-(trifluoromethoxy)benzyl)-3-(4-methyl-3-((1-methylpiperidin-3-yl)methoxy)-1-phenyl-1H-pyrazol-5-yl)urea]
< 100	COCc1ccc(OC(F)(F)F)c(CNC(=O)Nc2c(C)c(OC[C@@H]3CNCCO3)nn2-c2ccccc2)c1 [Example 112, (S)-1-(5-(methoxymethyl)-2-(trifluoromethoxy)benzyl)-3-(4-methyl-3-(morpholin-2-ylmethoxy)-1-phenyl-1H-pyrazol-5-yl)urea]
< 100	COCc1ccc(OC(F)(F)F)c(CNC(=O)Nc2c(C)c(OC[C@H]3COCCN3C)nn2-c2ccccc2)c1 [Example 113]
< 100	COCc1ccc(OC(F)(F)F)c(CNC(=O)Nc2c(C)c(OC[C@@H]3CN(C)CCO3)nn2-c2ccccc2)c1 [Example 114, (S)-1-(5-(methoxymethyl)-2-(trifluoromethoxy)benzyl)-3-(4-methyl-3-((4-methylmorpholin-2-yl)methoxy)-1-phenyl-1H-pyrazol-5-yl)urea]
